Assay results taken from the supplement of paper PMC10307832.

Experiments:
Experiment in all cases: relative viability (nuclei count vs DMSO), 5 days (fraction); higher = more cells survive
XMD8-85 + Palbociclib = compound: CN1CCN(CC1)C2=CC(=C(C=C2)NC3=NC=C4C(=N3)N(C5=CC=CC=C5C(=O)N4C)C)OC [XMD8-85] + CC(=O)c1c(C)c2cnc(Nc3ccc(N4CCNCC4)cn3)nc2n(C2CCCC2)c1=O [Palbociclib] (partner 0.5 µM)
Summary of the method: (§1)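 Relative viability divides the nuclei count in treated wells by that in vehicle wells. Lung cancer cell lines were seeded in 1536-well plates, dosed by pin tool the next day, and fixed and stained after 5 days in one step with final 0.05% Triton X-100, 1% formaldehyde and 1 ug/ml Hoechst. Dosing was a single drug or a fixed anchor-drug dose plus five library-drug doses (not always all listed) in √10 steps, and values are medians of duplicate plates imaged at 4×.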

XMD8-85 + Luminespib = compound: CN1CCN(CC1)C2=CC(=C(C=C2)NC3=NC=C4C(=N3)N(C5=CC=CC=C5C(=O)N4C)C)OC [XMD8-85] + CCNC(=O)c1noc(-c2cc(C(C)C)c(O)cc2O)c1-c1ccc(CN2CCOCC2)cc1 [Luminespib] (partner 0.01 µM)
Summary of the method: as §1

XMD8-85 + AZD7762 = compound: CN1CCN(CC1)C2=CC(=C(C=C2)NC3=NC=C4C(=N3)N(C5=CC=CC=C5C(=O)N4C)C)OC [XMD8-85] + NC(=O)Nc1cc(-c2cccc(F)c2)sc1C(=O)N[C@H]1CCCNC1 [AZD7762] (partner 0.2 µM)
Summary of the method: as §1

4EGI-1 + Palbociclib = compound: O=C(O)C(Cc1ccccc1[N+](=O)[O-])=NNc1nc(-c2ccc(Cl)c(Cl)c2)cs1 (mixture of isomers) [4EGI-1] + CC(=O)c1c(C)c2cnc(Nc3ccc(N4CCNCC4)cn3)nc2n(C2CCCC2)c1=O [Palbociclib] (partner 0.5 µM)
Summary of the method: as §1

Cell Line	relative viability (XMD8-85 + Palbociclib; first compound 0.08 µM)	relative viability (XMD8-85 + Palbociclib; first compound 0.253 µM)	relative viability (XMD8-85 + Palbociclib; first compound 0.8 µM)	relative viability (XMD8-85 + Palbociclib; first compound 2.53 µM)	relative viability (XMD8-85 + Palbociclib; first compound 8 µM)	relative viability (XMD8-85 + Luminespib; first compound 0.08 µM)	relative viability (XMD8-85 + Luminespib; first compound 0.253 µM)	relative viability (XMD8-85 + Luminespib; first compound 0.8 µM)	relative viability (XMD8-85 + Luminespib; first compound 2.53 µM)	relative viability (XMD8-85 + Luminespib; first compound 8 µM)	relative viability (XMD8-85 + AZD7762; first compound 0.08 µM)	relative viability (XMD8-85 + AZD7762; first compound 0.253 µM)	relative viability (XMD8-85 + AZD7762; first compound 0.8 µM)	relative viability (XMD8-85 + AZD7762; first compound 2.53 µM)	relative viability (XMD8-85 + AZD7762; first compound 8 µM)	relative viability (4EGI-1 + Palbociclib; first compound 0.5 µM)	relative viability (4EGI-1 + Palbociclib; first compound 1.581 µM)	relative viability (4EGI-1 + Palbociclib; first compound 5 µM)	relative viability (4EGI-1 + Palbociclib; first compound 15.81 µM)	relative viability (4EGI-1 + Palbociclib; first compound 50 µM)
ChaGo-K-1	0.99	0.965	0.963	0.931	0.899	0.603	0.577	0.71	0.585	0.501	0.825	0.883	0.855	0.903	0.91	0.95	0.936	0.973	1.01	0.556
NCI-H727		0.689	0.6	0.6		0.431	0.527	0.359	0.322	0.344	0.768	0.619	0.465	0.576	0.42	0.689	0.617	0.641	0.604	0.62
NCI-H23	0.488		0.525	0.441	0.413	0.207	0.234	0.214	0.199	0.193	0.173	0.287	0.23	0.18	0.2	0.541		0.614	0.393	0.272
